Where a chain is given by its changes, count along the chain named.
Key:
AtHMGB1 = molecular target: T1, AtHMGB1 (Arabidopsis thaliana, UniProt O49595); assay: SPR: AtHMGB1 binding to immobilized 3AESA
T1 sequence (O49595 1-178): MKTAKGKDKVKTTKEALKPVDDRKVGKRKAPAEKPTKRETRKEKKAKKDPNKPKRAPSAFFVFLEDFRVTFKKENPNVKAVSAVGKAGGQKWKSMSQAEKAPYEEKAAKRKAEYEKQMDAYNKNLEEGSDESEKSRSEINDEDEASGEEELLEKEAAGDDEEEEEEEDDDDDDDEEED
Description: For SPR, 3-AESA was immobilized on a CM5 sensor chip (GE Healthcare) using the amine coupling kit (GE Healthcare). To test SA binding activity, 0.5 μM HMGB1 in HBS-EP buffer (0.01 M HEPES, pH 7.4, 0.15 M NaCl, 3 mM EDTA, 0.005% v/v Surfactant P20; GE Healthcare) without or with varying concentrations of SA was flowed through 3-AESA-immobilized or mock-coupled flow cells. The binding signals were determined by subtracting out the signal from the mock-coupled flow cell.

AtHMGB3 = molecular target: T2, AtHMGB3 (Arabidopsis thaliana, UniProt P93047); assay: SPR: AtHMGB3 binding to immobilized 3AESA; parameters: providing a full length Arabidopsis thaliana HMGB1 or HMGB3 (AtHMGB1 or AtHMGB3) protein; 6x His; made in house; host or cells: Escherichia coli BL21
T2 sequence (P93047 1-141): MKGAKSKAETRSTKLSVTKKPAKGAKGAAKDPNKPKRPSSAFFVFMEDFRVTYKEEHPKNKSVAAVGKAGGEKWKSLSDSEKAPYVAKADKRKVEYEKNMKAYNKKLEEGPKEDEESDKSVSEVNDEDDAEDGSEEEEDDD

HMGB1^RE = molecular target: T3, HMGB1^RE (Homo sapiens, UniProt P09429); assay: Chemotaxis assay (Boyden chambers): HMGB1^RE-elicited migration of mouse 3T3 fibroblasts; type: cell-based
T3 construct: (i) full length: residues 2-215; 6x His (cleaved yes); made in house; host or cells: Escherichia coli BL21
T3 sequence (P09429 2-215): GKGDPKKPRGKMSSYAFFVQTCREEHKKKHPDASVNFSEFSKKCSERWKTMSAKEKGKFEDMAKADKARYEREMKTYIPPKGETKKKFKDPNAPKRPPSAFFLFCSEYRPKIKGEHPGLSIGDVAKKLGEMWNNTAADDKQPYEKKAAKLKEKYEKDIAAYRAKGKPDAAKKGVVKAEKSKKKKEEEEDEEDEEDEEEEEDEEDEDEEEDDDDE
Description: (§1) Cell migration was assayed using Boyden chambers (Venereau et al., 2012). The downside of PVP-free polycarbonate filters (8 μm pores; Millipore) was coated with 50 μg/ml fibronectin (Sigma). Serum-free DMEM (negative control), DMEM containing 0.1 nM fMLP (positive control; Sigma), or DMEM containing 1 nM HMGB1^RE or HMGB1^SS were placed in the lower chamber, together with different concentrations of SA (Sigma). The mouse 3T3 fibroblast cells were cultured in DMEM media supplemented with 10% CS until 90% confluence, washed twice with PBS to eliminate any floating cells, and harvested with trypsin. 50,000 cells in 200 μL were added to the upper chamber, and cells were left to migrate for 3 h at 37° C. Non-migrating cells were removed with a cotton swab, and migrated cells were fixed with ethanol and stained with Giemsa.
(§2) HMGB1^RE acts as a chemo-attractant that mediates migration of several cell types, including monocytes, fibroblasts, mesoangioblasts, smooth muscle cells, and colon cancer cells (Venereau et al., 2012). To determine whether SA alters HMGB 1's chemo-attractant activity, a chemotaxis assay was performed with mouse 3T3 fibroblasts.

[1] = molecular target: T4, full-length (FL) R24A/K28A HMGB1 (Homo sapiens, UniProt P09429, K28A/R24A); assay: 15N-1H HSQC NMR binding to R24A/K28A HMGB1; settings: ~0.1 mM protein; 15 mM SA, 3 mM ac3AESA or 3 mM amorfrutin B1
T4 construct: (i) full length: residues 2-215; made in house
T4 sequence (P09429 2-215 R24A/K28A): T3 sequence (P09429 2-215) with R23A, K27A
Description: […] Samples were analyzed with and without SA or other candidate inhibitors at 25° C. Chemical shift perturbation studies were carried out using either a Bruker Avance 800 MHz Avance NMR system with 4-mm NMR tubes, or using a Bruker Avance 600 MHz NMR spectrometer equipped with a 1.7 mm micro cryoprobe. 1024 or 2048 complex points were acquired for each of 80 to 200 increments in the ^15N dimension with a recycle delay of 1 s. Each spectrum was typically acquired for 2-8 hrs. Chemical shift assignments were determined using a uniformly ^13C,^15N-enriched HMGB1-ΔC construct at 25° C. via traditional triple-resonance NMR experiments (Biamonti et al., 1994; Moseley et al., 2001) recorded on a Bruker 800 MHz NMR spectrometer equipped with a 5 mm cryoprobe. Disulfide oxidation studies were carried out using the ^15N-^1H SOFAST-HMQC NMR experiment (Schanda & Brutscher, 2005; Schanda et al., 2005; Zandarashvili et al., 2013).
(§3) An alternative explanation is that SA, at low concentrations, affects another factor in vivo, which results indirectly in suppression of HMGB1^RE-induced chemotaxis. […] Therefore, these residues were mutated to Ala to form the double mutant Arg24Ala/Lys28Ala (R24A/K28A).

[2] = system: fMLP-induced migration of NIH/3T3 fibroblast cells; assay: Chemotaxis assay: fMLP-induced fibroblast migration (specificity control); type: cell-based, mouse; settings: 0.1 nM fMLP
Description: as §1, §2

[3] = molecular target: T5, mutant (R24A/K28A) HMGB1^RE (Homo sapiens, UniProt P09429, K28A/R24A); assay: Chemotaxis assay with mutant R24A/K28A HMGB1^RE; type: cell-based; settings: NIH/3T3 fibroblasts
T5 construct: (i) full length: residues 2-215; made in house
T5 sequence (P09429 2-215 R24A/K28A): T3 sequence (P09429 2-215) with R23A, K27A
Description: as §1, §3

[4] = de-acetylation by esterases in human plasma (Costello et al., 1984); cited from earlier work
COX = settings: cited from earlier work

With `NCCc1cccc(C(=O)O)c1O` [3AESA, 3-aminoethyl SA] the “binding of AtHMGB1 to 3AESA immobilized to SPR sensor chip” value (AtHMGB1) was “effectively bound” and the “binding of AtHMGB3 to 3AESA immobilized to SPR sensor chip” value (AtHMGB3) was “effectively bound”.

In the case of `COc1cc(CCc2ccccc2)c(C(=O)O)c(O)c1C/C=C(\C)CCC=C(C)C` [amorfrutin B1], the IC50 (HMGB1^RE; NIH/3T3 fibroblasts, 1 nM HMGB1^RE, read-out: IC50, inhibition of chemo-attractant activity of HMGB1^RE) is reported as about 0.06 µM, the “times more potent than SA at inhibiting the chemo-attractant activity of HMGB1^RE” value (HMGB1^RE; relative to SA) is reported as 50-70 times and the “binding to R24A/K28A HMGB1 (CSPs in HSQC)” value [1] is reported as “do not bind”. The “effect on fibroblast migration induced by fMLP” value [2] was “but not of 0.1 nM fMLP, was blocked” and the “inhibition of R24A/K28A HMGB1^RE's chemo-attractant activity” value [3] was “only partially”.

In the case of `CC(=O)Oc1ccccc1C(=O)O` [aspirin, acetylsalicylic acid], the “half-life of conversion to SA” value [4] is given as 13 to 19.5 min, the “IC50, inhibition of COX activity in vitro” value (COX; literature (Mitchell et al., 1997; Vane, 1971)) is given as 6.3 µg/mL and the IC50 (COX; literature, conversion in parentheses, read-out: IC50, inhibition of COX activity in vitro) is given as about 35 µM.
